Starred links: 1 amine or outer side, 2 acyl side, 3 side chain; linkers in the order of their positions; H or OH if unused. Positions of bridges follow the written chain, without caps; N, C: chain ends. Non-standard residues stand in square brackets, D forms with d. Residues, ends and D or L forms follow the SMILES beside them. *: point of attachment. Orn(4R-OH,5R-OH) = O=C([C@H](C[C@@H](O)[C@@H](O)N[*:3])N[*:1])[*:2]; hTyr(3S-OH,4S-OH) = N[C@H](C(=O)O)[C@H](O)[C@@H](O)c1ccc(O)cc1; Benzoyl(4-dodecyloxy) = CCCCCCCCCCCCOc1ccc(C(=O)*)cc1; Benzoyl(4-OC10H21) = CCCCCCCCCCOc1ccc(C(=O)*)cc1; Pro(3S-OH,4S-Me) = C[C@H]1CN[C@H](C(=O)O)[C@H]1O; X20 = CCCCCCCCCCCCCCOc1ccc(C(=O)*)cc1; X18 = CCCCCCCCCCCCOc1ccc(CC(=O)*)cc1; X3 = CCCCCCCCCCCCCCSc1ccc(C(=O)*)cc1; X1 = CCCCCCCCCCCCSc1ccc(C(=O)*)cc1; X11 = CCCCCCCCOc1ccc(OCC(=O)*)cc1; Hyp = O=C(O)[C@@H]1C[C@@H](O)CN1; X6 = CCCCCCCCCCSc1ccc(C(=O)*)cc1; X7 = CCCCCCCCSc1ccc(C(=O)*)cc1
Columns and labels:
Candida albicans A-26 [1] = experiment: Therapeutic activity against Candida albicans A-26 infection in mice, ED50; type: in vivo; conditions: Candida albicans, A26, sc, doses 0, 4 and 24 hours post infection, increase in survival time vs control, Reed-Muench, read-out: ED50
Method: (§1) The results of in vivo tests to evaluate the effectiveness of the compounds of Examples 3 and 4 against an infection caused by Candida albicans A-26 in mice are given in Table 13, where activity is measured by the ED50 value (the dose in mg/kg. required to cure 50% of the test animals). In a separate test, the results of which are also summarized in Table 13, activity is indicated by the lowest dose at which a significant anti-fungal effect is observed. In this test, groups of male albino mice (specific pathogen free), weighing 18 to 20 grams, are infected intravenously with Candida albicans A-26. The animals are X-irradiated 24 hours prior to infection at about 50 roentgens per minute for 8 minutes (400 total dose) to reduce immune responses to the infecting organism. At 0, 4, and 24 hours post infection each group of mice is given graded doses subcutaneously of the test compound as a suspension in 33% polyethylene glycol (PEG)-water. The day of death for each animal is recorded.
(§2) *Dosage Schedules: A. = 40, 20, 15 and 10 mg/kg; Dosages given 0, 4, and
(§3) 24 hours post injection as suspension of test compound in 30% PEGH2
(§4) O. Number of mice receiving test compounds at each dosage level: 6 mice
(§5) per group. Number of mice in control (untreated) group: 10 mice per group
**As measured by increase in survival time of treated animals versus
control, calculated by method of Reed v Mueuch, American J. Hygiene, 27,

Candida albicans A-26 [2] = experiment: Therapeutic activity against Candida albicans A-26 infection in X-irradiated mice, lowest active dose; type: in vivo; conditions: A26, light or radiation study, sc, read-out: Lowest Active Dose, X-irradiated mice, subcutaneous at 0, 4 and 24 hours post infection, survival
Method: as §1, §2, §3, §4, §5

in vivo = conditions: mouse, po, 416 mg/kg

SMILES | ED50 (Candida albicans A-26 [1]) | minimal effective dose (Candida albicans A-26 [2]) | Cmax (in vivo)
CCCCCCCCCCCCOc1ccc(CC(=O)N[C@H]2C[C@@H](O)[C@@H](O)NC(=O)[C@@H]3[C@@H](O)[C@@H](C)CN3C(=O)[C@H]([C@@H](C)O)NC(=O)[C@H]([C@H](O)[C@@H](O)c3ccc(O)cc3)NC(=O)[C@@H]3C[C@@H](O)CN3C(=O)[C@H]([C@@H](C)O)NC2=O)cc1 [drawing 178] (X18-[Orn(4R-OH,5R-OH)]T[Hyp][hTyr(3S-OH,4S-OH)]T[Pro(3S-OH,4S-Me)]; lactam 1-C) | 8.4 mg/kg | 10 mg/kg | –
CCCCCCCCOc1ccc(OCC(=O)N[C@H]2C[C@@H](O)[C@@H](O)NC(=O)[C@@H]3[C@@H](O)[C@@H](C)CN3C(=O)[C@H]([C@@H](C)O)NC(=O)[C@H]([C@H](O)[C@@H](O)c3ccc(O)cc3)NC(=O)[C@@H]3C[C@@H](O)CN3C(=O)[C@H]([C@@H](C)O)NC2=O)cc1 [drawing 179] (X11-[Orn(4R-OH,5R-OH)]T[Hyp][hTyr(3S-OH,4S-OH)]T[Pro(3S-OH,4S-Me)]; lactam 1-C) | 16.8 mg/kg | 10 mg/kg | –
CCCCCCCCCCOc1ccc(C(=O)N[C@H]2C[C@@H](O)[C@@H](O)NC(=O)[C@@H]3[C@@H](O)[C@@H](C)CN3C(=O)[C@H]([C@@H](C)O)NC(=O)[C@H]([C@H](O)[C@@H](O)c3ccc(O)cc3)NC(=O)[C@@H]3C[C@@H](O)CN3C(=O)[C@H]([C@@H](C)O)NC2=O)cc1 [drawing 182] ({Benzoyl(4-OC10H21)}-[Orn(4R-OH,5R-OH)]T[Hyp][hTyr(3S-OH,4S-OH)]T[Pro(3S-OH,4S-Me)]; lactam 1-C) | – | – | < 100 ng/mL
CCCCCCCCCCCCOc1ccc(C(=O)N[C@H]2C[C@@H](O)[C@@H](O)NC(=O)[C@@H]3[C@@H](O)[C@@H](C)CN3C(=O)[C@H]([C@@H](C)O)NC(=O)[C@H]([C@H](O)[C@@H](O)c3ccc(O)cc3)NC(=O)[C@@H]3C[C@@H](O)CN3C(=O)[C@H]([C@@H](C)O)NC2=O)cc1 [drawing 183] ({Benzoyl(4-dodecyloxy)}-[Orn(4R-OH,5R-OH)]T[Hyp][hTyr(3S-OH,4S-OH)]T[Pro(3S-OH,4S-Me)]; lactam 1-C) | – | – | 5000 ng/mL
CCCCCCCCCCCCCCOc1ccc(C(=O)N[C@H]2C[C@@H](O)[C@@H](O)NC(=O)[C@@H]3[C@@H](O)[C@@H](C)CN3C(=O)[C@H]([C@@H](C)O)NC(=O)[C@H]([C@H](O)[C@@H](O)c3ccc(O)cc3)NC(=O)[C@@H]3C[C@@H](O)CN3C(=O)[C@H]([C@@H](C)O)NC2=O)cc1 [drawing 184] (X20-[Orn(4R-OH,5R-OH)]T[Hyp][hTyr(3S-OH,4S-OH)]T[Pro(3S-OH,4S-Me)]; lactam 1-C) | – | – | 5000 ng/mL
CCCCCCCCSc1ccc(C(=O)N[C@H]2C[C@@H](O)[C@@H](O)NC(=O)[C@@H]3[C@@H](O)[C@@H](C)CN3C(=O)[C@H]([C@@H](C)O)NC(=O)[C@H]([C@H](O)[C@@H](O)c3ccc(O)cc3)NC(=O)[C@@H]3C[C@@H](O)CN3C(=O)[C@H]([C@@H](C)O)NC2=O)cc1 [drawing 185] (X7-[Orn(4R-OH,5R-OH)]T[Hyp][hTyr(3S-OH,4S-OH)]T[Pro(3S-OH,4S-Me)]; lactam 1-C) | – | – | < 100 ng/mL
CCCCCCCCCCSc1ccc(C(=O)N[C@H]2C[C@@H](O)[C@@H](O)NC(=O)[C@@H]3[C@@H](O)[C@@H](C)CN3C(=O)[C@H]([C@@H](C)O)NC(=O)[C@H]([C@H](O)[C@@H](O)c3ccc(O)cc3)NC(=O)[C@@H]3C[C@@H](O)CN3C(=O)[C@H]([C@@H](C)O)NC2=O)cc1 [drawing 186] (X6-[Orn(4R-OH,5R-OH)]T[Hyp][hTyr(3S-OH,4S-OH)]T[Pro(3S-OH,4S-Me)]; lactam 1-C) | – | – | 5000 ng/mL
CCCCCCCCCCCCSc1ccc(C(=O)N[C@H]2C[C@@H](O)[C@@H](O)NC(=O)[C@@H]3[C@@H](O)[C@@H](C)CN3C(=O)[C@H]([C@@H](C)O)NC(=O)[C@H]([C@H](O)[C@@H](O)c3ccc(O)cc3)NC(=O)[C@@H]3C[C@@H](O)CN3C(=O)[C@H]([C@@H](C)O)NC2=O)cc1 [drawing 187] (X1-[Orn(4R-OH,5R-OH)]T[Hyp][hTyr(3S-OH,4S-OH)]T[Pro(3S-OH,4S-Me)]; lactam 1-C) | – | – | 30000 ng/mL
CCCCCCCCCCCCCCSc1ccc(C(=O)N[C@H]2C[C@@H](O)[C@@H](O)NC(=O)[C@@H]3[C@@H](O)[C@@H](C)CN3C(=O)[C@H]([C@@H](C)O)NC(=O)[C@H]([C@H](O)[C@@H](O)c3ccc(O)cc3)NC(=O)[C@@H]3C[C@@H](O)CN3C(=O)[C@H]([C@@H](C)O)NC2=O)cc1 [drawing 188] (X3-[Orn(4R-OH,5R-OH)]T[Hyp][hTyr(3S-OH,4S-OH)]T[Pro(3S-OH,4S-Me)]; lactam 1-C) | – | – | 230000 ng/mL

— patent US4293489A, “Derivatives of A-30912A nucleus” (Eli Lilly and Company, priority 1980, dated 1981)
